From article PMC7665192, “A natriuretic peptide from Arabidopsis thaliana (AtPNP-A) can modulate catalase 2 activity” (Scientific Reports, 2020)
One block for each molecule: values may come before it. Positions of bridges follow the written chain, without caps; N, C: chain ends. No end group written: not given here.

What was measured:
[1] = test system: CAT2 transcript; settings: exogenous application; cited from earlier work
Text: (§1) It is also conceivable that modulation of CAT2 activity by AtPNP-A may not only have implications for plant biotic stress tolerance but may also result in changes in responses to abiotic stress. Activity of CAT2 is required for decomposition of photorespiration-derived H2O2 preventing redox perturbation under ambient growth conditions[59] while CAT2 deficiency causes a defective photorespiration phenotype including suppressed growth[58],[59] and accumulation of H2O2 in leaves. During senescence suppression of CAT2 function, mediated by G-BOX BINDING FACTOR1 (GBF1)[76], decreases CAT2 activ ...

[2] = test system: plant pathogen; settings: exogenous H2O2; cited from earlier work
[3] = test system: AtPNP-A-deficient seedlings; settings: cited from earlier work
Text: as §1

[4] = test system: cGMP; settings: cited from earlier work
Text: Similarly, identification of novel receptors targeted by an increasing number of peptidic plant hormones discovered in the last few decades[8],[9] is anticipated. One of those, the plant natriuretic peptides (PNPs), are a group of systemically mobile signals[10] that have a role in the maintenance of salt and water balance[11],[12]. An A. thaliana PNP, termed AtPNP-A (At2g18660; Q9ZV52), has been implicated in several physiological processes ranging from the regulation of stomatal aperture, osmoticum-dependent volume changes[13],[14] and modulation of developmental stage- and tissue-specif ... || A PNP_CAT interaction in plant responses to infecting pathogens is not surprising. CATs commonly function to down-regulate ROS during ABA-induced stomatal closure, and ABA-induced stomatal closure can be inhibited by removal of H2O2 via CAT2[73],[74]. […] Therefore, it is tempting to speculate that AtPNP-A modulates the effect of ABA on stomatal aperture through the interaction w ...

[5] = test system: guard cell; settings: cited from earlier work
Text: A PNP_CAT interaction in plant responses to infecting pathogens is not surprising. CATs commonly function to down-regulate ROS during ABA-induced stomatal closure, and ABA-induced stomatal closure can be inhibited by removal of H2O2 via CAT2[73],[74]. […] Therefore, it is tempting to speculate that AtPNP-A modulates the effect of ABA on stomatal aperture through the interaction w ...

[6] = molecular target: T1, recombinant catalase 2 (rCAT2), N-terminally 6xHis-tagged (A. thaliana, UniProt P25819 1-492); assay: SPR; Biacore T100, 20 °C; His-tagged rCAT2 immobilised on the NTA sensor chip (app. 4,500 RU), peptides injected at the same concentration; unmodified reference surface; settings: both partners purified
T1 construct: catalase 2 (CAT2), A. thaliana; held on the NTA chip by its His tag; also called CAT2 recombinant protein; His-tagged rCAT2; source: E. coli BL21 (DE3) One Shot, purified (Ni-NTA beads, HisTrap HP column); not shown: 6xHis, N-terminal, kept
T1 sequence (looked up): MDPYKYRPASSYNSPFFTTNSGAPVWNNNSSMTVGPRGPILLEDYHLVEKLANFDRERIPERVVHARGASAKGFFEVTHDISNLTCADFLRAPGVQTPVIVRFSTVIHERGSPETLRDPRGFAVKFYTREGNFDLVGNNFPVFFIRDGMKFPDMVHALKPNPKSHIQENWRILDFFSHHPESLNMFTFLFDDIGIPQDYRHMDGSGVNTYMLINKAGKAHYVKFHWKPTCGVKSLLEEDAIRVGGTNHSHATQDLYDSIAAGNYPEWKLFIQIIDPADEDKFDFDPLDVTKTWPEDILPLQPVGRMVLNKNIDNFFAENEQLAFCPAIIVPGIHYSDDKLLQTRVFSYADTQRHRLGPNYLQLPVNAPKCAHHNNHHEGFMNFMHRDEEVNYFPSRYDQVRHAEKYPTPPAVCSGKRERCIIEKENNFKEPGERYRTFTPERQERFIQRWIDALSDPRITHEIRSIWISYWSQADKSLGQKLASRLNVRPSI

[7] = molecular target: T2, bovine liver CAT (C-40; Sigma) (bovine, UniProt P00432 1-527); assay: SPR; Biacore T100, 20 °C, flow 100 μL/min; bovine liver CAT amine-coupled to Series S CM5 chip, pAtPNP-A at 3.78 μM and consecutive twofold dilutions (11 injections); regeneration with glycine pH 2.0; kinetic analysis; settings: both partners purified
T2 construct: catalase from bovine liver; also called bovine CAT; bovine liver catalase; source: bought: Sigma (C-40), bovine liver
T2 sequence (looked up): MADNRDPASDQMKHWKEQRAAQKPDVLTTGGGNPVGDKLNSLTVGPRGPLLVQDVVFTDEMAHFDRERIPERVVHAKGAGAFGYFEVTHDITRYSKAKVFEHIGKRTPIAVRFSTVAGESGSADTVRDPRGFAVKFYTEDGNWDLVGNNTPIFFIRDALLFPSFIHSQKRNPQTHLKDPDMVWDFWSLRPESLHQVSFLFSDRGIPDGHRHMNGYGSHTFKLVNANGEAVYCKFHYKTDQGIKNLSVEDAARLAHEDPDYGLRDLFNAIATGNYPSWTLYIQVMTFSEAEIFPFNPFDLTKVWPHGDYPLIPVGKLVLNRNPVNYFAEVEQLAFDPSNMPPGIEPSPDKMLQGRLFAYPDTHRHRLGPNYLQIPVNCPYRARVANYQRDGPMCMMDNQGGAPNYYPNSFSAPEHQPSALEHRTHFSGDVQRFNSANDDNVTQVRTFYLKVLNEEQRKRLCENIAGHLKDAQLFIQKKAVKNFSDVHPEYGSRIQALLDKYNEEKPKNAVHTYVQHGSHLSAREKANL

Molecule: OO [H2O2, hydrogen peroxide]
CAT2 transcript [1]: Increases in CAT2 transcript
Plant pathogen resistance [2]: enhances plant pathogen resistance

Molecule: C[n+]1ccc(-c2cc[n+](C)cc2)cc1 [methyl viologen]
Chlorosis in AtPNP-A-deficient seedlings [3]: extensive chlorosis
CAT2 transcript [1]: Increases in CAT2 transcript

Molecule: CC1=CC(=O)CC(C)(C)[C@@]1(O)/C=C/C(C)=C\C(=O)O [ABA, abscisic acid, reference compound]
Effect of ABA on AtPNP-A-dependent cGMP increases [4]: no effect
Effect of ABA on AtPNP-A-dependent guard cell volume increases [5]: no effect

binding result [6]: binds
Kd [7]: 86 nM
B1: pAtPNP-A, synthetic peptide with the active region of AtPNP-A, as used in SPR, ITC and the catalase activity assay (peptide, UniProt Q9ZV52 33-66, looked up)
peptide: YDPPYTRSACYGTQRETLVVGVKNNLWQNGRACG
modifications: disulfide 10-33 (inferred); not fully specified
notes: AtPNP-A (plant natriuretic peptide A), A. thaliana, active region, amino acids 33-66; peptides were made with or without a C-terminal biotin tag; also called biologically active fragment of AtPNP-A; source: synthetic peptide (GenScript, purity > 95%)
